# Experimental data published in ChEMBL document CHEMBL3217553, “Binding properties and biological characterization of new sugar-derived Ras ligands” (Medchemcomm, 2011).
# Active and inactive are the calls of the source. No cut-off for these calls is given here.
# Experiments:
# NIH3T3 [1] = experiment: Inhibition of cell proliferation in mouse NIH/3T3 cells expressing K-RAS after 24 to 72 hrs by coulter counting analysis; assay type: functional, cell-based
# GTPase HRas [2] = target: T1, GTPase HRas (Homo sapiens, UniProt P01112); experiment: Binding affinity to [15N]-H-Ras (1 to 166) (unknown origin) by NMR spectrometry
# Target sequence in this assay (P01112 whole entry): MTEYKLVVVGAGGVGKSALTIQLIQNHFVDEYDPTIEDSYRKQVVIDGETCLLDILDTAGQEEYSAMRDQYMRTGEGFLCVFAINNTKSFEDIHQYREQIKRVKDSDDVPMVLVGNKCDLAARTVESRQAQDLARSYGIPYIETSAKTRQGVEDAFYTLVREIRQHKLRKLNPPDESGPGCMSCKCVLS
# [3] = Inhibition of cell proliferation in mouse NIH/3T3 cells at 100 uM after 24 to 72 hrs by coulter counting analysis; assay type: cell-based; conditions: nih3t3, 100 µM
# NIH3T3 [4] = experiment: Inhibition of cell proliferation in mouse NIH/3T3 cells expressing K-RAS at 100 uM after 24 to 72 hrs by coulter counting analysis; assay type: functional, cell-based
# GTPase HRas [5] = target: T1, GTPase HRas; experiment: Inhibition of recombinant N-terminal His-tagged H-Ras (unknown origin) expressed in Escherichia coli M15 assessed as inhibition of GEF-mediated nucleotide exchange after 300 secs by luminescence spectrophotometry
# Target sequence in this assay (P01112 whole entry): as above
# GTPase HRas [6] = target: T1, GTPase HRas; experiment: Inhibition of recombinant N-terminal His-tagged H-Ras (unknown origin) expressed in Escherichia coli M15 assessed as inhibition of human Sos1-mediated nucleotide exchange after 300 secs by luminescence spectrophotometry
# Mus musculus = organism: Mus musculus; experiment: Inhibition of Ras in mouse NIHRAS cells assessed as reduction of phosphorylated MAPK level at 250 uM after 24 hrs by sandwich ELISA; assay type: cell-based
# [7] = Inhibition of cell proliferation in mouse NIH/3T3 cells after 24 to 72 hrs by coulter counting analysis; assay type: cell-based; conditions: nih3t3
SMILES,inhibition (NIH3T3 [1]),Kd (GTPase HRas [2]),Activity [3],inhibition (NIH3T3 [4]),IC50 (GTPase HRas [5]),IC50 (GTPase HRas [6]),inhibition (GTPase HRas [6]),inhibition (Mus musculus),inhibition (INH) [7]
CC(=O)N[C@H]1C(N(Cc2ccc(O)c(O)c2)OCc2ccccc2)O[C@H](CO)[C@@H](O)[C@@H]1O (stereo partly drawn),Dose-dependent effect,5.5 µM,Toxic,Active,80 µM,122 µM,Dose-dependent effect,Active,Dose-dependent effect
OC[C@H]1O[C@@H](O[C@H]2[C@H](O)[C@@H](O)C(N(Cc3ccc(O)c(O)c3)OCc3ccccc3)O[C@@H]2CO)[C@H](O)[C@@H](O)[C@H]1O (stereo partly drawn),Dose-dependent effect,7.8 µM,Toxic,Active,100 µM,,,,Dose-dependent effect
Oc1ccc(CNOCc2ccccc2)cc1O,,21.4 µM,,,320 µM,,,,
OC[C@H]1OC(N(Cc2ccc(O)c(O)c2)OCc2ccccc2)[C@H](O)[C@@H](O)[C@@H]1O (stereo partly drawn),Dose-dependent effect,9.5 µM,Toxic,Active,80 µM,,,,Dose-dependent effect
